Usually EC50 stands for the concentration giving half of the maximal effect. The IC50 is the concentration needed to halve the response being measured. As usually defined, the AC50 is the concentration giving half of the maximal activity seen. As a reminder, the CC50 is the concentration giving 50% cytotoxicity.

Activity calls are given as the source filed them.

The target in assay [1] is Beta-2 adrenergic receptor (Homo sapiens, UniProt P07550). Nature of the assay: ADRB2 activation measured by internalization – cell-based, FAP fluorogen, flow cytometry, cherry pick 1, dose response (AID 588763). The assay is classed as functional. Background: Flow cytometry measures light scatter and fluorescence of single cells or particles in a stream.
Assay [2] addresses T1, Fatty acid synthase (Homo sapiens, UniProt P49327). Nature of the assay: inhibition of human FAS-TE enzyme activity – biochemical, endpoint fluorescence intensity, uHTS hits, dose response (AID 624327).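 Also: fluorescence from hydrolysis of an O-methyl fluorescein acyl ester substrate by the enzyme.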 The assay is classed as functional.
Assay [3] deals with T1, Fatty acid synthase. Nature of the assay: inhibition of human FAS-TE enzyme activity – biochemical, kinetic fluorescence intensity, dose response (AID 624326).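 Also: rate of fluorescence rise from hydrolysis of a fluorogenic O-methyl fluorescein ester substrate.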 The assay is classed as functional.
Assay [4] in a line: HEK-293T cell viability reduction – luminescence, B-cell screen hits, cytotoxicity control for BCR NF-kB inhibitor project, dose response (AID 489021).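 Also: HEK-293T cells carrying an NF-kB luciferase reporter; cells exposed to compound for about 14 hours before viability readout.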 The assay is classed as functional, cell-based.
The test system of another assay is HEK293. Nature of the assay: HEK293T cell viability loss, resazurin readout – resazurin fluorescence, cytotoxicity control for NF-kB activator project, SAR follow-up (AID 493251). To be noted: Homo sapiens. The assay is classed as functional, cell-based. On the technique in general: The colour change of resazurin is a common sign of viable cells or microbes.
Assay [5] relates to Candida albicans. In words: fluconazole-resistant Candida strain growth inhibitors – CaCi-8 strain, dry powder, set 4, dose response (AID 488950). The assay is classed as functional, organism-based.
The test system of assay [6] is Candida albicans. In words: Candida growth reduction in fluconazole presence – CaCi-2 strain, Alamar Blue, dry powder, set 2, antifungal resistance reversal project, dose response (AID 488930). The assay is classed as functional, organism-based.
In assay [7] the test system is Candida albicans. In words: C. albicans growth inhibition with fluconazole – CaCi-2 strain, Alamar Blue, dry powder, set 4, dose response (AID 488943). The assay is classed as functional, organism-based.
Assay [8] concerns Candida albicans. Nature of the assay: single-agent antifungal toxicity in C. albicans – CaCi-2 strain, Alamar Blue, dry powder, set 2, counter-screen for antifungal drug resistance project, dose response (AID 488893). The assay is classed as functional, organism-based.
The subject of assay [9] is Candida albicans. Nature of the assay: resistant Candida growth with fluconazole co-treatment – CaCi-8 strain, Alamar Blue, dry powder, set 2, dose response (AID 488909). The assay is classed as functional, organism-based.
A short description of assay [10]: viability of uninfected HEp-2 cells – cell-based, HTS, cytotoxicity control for RSV inhibitor project, dose response (AID 2410). The assay is classed as functional. To be noted: human respiratory syncytial virus.
Another assay deals with T2, Aminopeptidase N (Plasmodium falciparum FcB1/Columbia, UniProt O96935).
T2 sequence (O96935 whole entry): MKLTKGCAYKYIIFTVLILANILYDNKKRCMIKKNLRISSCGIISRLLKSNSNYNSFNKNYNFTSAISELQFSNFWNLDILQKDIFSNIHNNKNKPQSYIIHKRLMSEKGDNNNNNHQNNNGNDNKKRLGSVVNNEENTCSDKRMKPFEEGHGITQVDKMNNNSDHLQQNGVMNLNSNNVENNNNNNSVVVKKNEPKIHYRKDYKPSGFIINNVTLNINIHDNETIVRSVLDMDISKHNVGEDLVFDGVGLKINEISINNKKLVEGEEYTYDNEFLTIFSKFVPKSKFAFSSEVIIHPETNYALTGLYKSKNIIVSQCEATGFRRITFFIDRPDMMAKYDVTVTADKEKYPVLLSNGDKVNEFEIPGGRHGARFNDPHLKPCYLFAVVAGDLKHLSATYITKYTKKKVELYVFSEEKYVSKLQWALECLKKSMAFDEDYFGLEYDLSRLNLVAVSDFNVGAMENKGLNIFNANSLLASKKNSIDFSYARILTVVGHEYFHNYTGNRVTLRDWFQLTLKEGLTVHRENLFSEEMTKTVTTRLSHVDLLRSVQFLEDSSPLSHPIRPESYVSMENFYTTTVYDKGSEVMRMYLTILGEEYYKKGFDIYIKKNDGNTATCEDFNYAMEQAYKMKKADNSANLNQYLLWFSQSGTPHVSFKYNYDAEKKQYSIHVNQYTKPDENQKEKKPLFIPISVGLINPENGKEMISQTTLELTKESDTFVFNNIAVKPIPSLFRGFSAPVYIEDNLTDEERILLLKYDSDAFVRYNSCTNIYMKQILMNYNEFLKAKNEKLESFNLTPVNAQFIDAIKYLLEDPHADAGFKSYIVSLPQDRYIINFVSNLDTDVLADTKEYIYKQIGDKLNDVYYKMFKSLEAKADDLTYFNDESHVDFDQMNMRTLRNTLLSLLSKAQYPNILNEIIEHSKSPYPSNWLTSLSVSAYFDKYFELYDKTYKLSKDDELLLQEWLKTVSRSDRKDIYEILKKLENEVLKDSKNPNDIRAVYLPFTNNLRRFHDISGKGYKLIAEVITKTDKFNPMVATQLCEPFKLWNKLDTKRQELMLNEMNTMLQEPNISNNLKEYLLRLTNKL
Nature of the assay: malaria alanyl aminopeptidase activity blockers – biochemical, fluorogenic H-Leu-NHMec substrate, 1536-well (AID 1445). Further details: species or system Plasmodium falciparum 3D7, 3D7.

For assay [11], the system named is Streptococcus sp. 'group A'. Nature of the assay: Streptococcus pyogenes SK(-)GAS viability under kanamycin – luminescence, BacTiterGlo, confirmation, counter-screen for streptokinase expression inhibitor project, dose response (AID 1900). The assay is classed as functional, organism-based. On the technique in general: Counterscreens check selectivity or assay interference.

The target of the next assay is T3, Streptokinase A (Streptococcus pyogenes serotype M1, UniProt P10520).
T3 sequence (P10520 whole entry): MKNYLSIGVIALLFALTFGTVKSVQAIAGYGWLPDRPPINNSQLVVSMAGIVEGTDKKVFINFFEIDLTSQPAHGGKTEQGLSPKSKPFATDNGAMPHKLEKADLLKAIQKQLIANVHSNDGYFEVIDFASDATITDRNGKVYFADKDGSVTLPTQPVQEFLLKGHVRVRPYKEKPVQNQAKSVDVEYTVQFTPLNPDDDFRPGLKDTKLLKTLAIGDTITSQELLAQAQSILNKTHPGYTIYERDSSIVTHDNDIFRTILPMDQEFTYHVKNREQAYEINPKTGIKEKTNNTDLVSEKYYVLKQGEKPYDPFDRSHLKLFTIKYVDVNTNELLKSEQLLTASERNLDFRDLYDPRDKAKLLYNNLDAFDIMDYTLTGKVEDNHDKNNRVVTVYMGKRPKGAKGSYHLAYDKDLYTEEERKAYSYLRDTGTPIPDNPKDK
In words: viability-normalized secreted streptokinase activity reduction – plasminogen activation absorbance, OD405, dose response (AID 1914).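 Also: secreted streptokinase activity via plasminogen activation per viability signal from cell pellet.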 The assay is classed as functional, Streptococcus pyogenes M1 GAS.

Assay [12] concerns the target T4, Induced myeloid leukemia cell differentiation protein Mcl-1 (Homo sapiens, UniProt Q07820). In words: blockers of MCL1 binding to BIM peptide – biochemical, fluorescence polarization, BIM-BH3 peptide, 1536-well, dose response (AID 2217).
Another assay deals with Estrogen receptor beta (Homo sapiens, UniProt Q92731). In words: blockers of SRC-3 recruitment to ERβ – biochemical, ELISA, streptavidin-HRP readout, orthogonal assay, confirmation (AID 1060).
Another assay deals with Bcl-2-like protein 1 (Homo sapiens, UniProt Q07817). In words: blockers of BCLXL peptide binding – biochemical, fluorescence polarization, 1536-well, selectivity assay for MCL1 inhibitor project, dose response (AID 2218).
Assay [13] concerns the target T4, Induced myeloid leukemia cell differentiation protein Mcl-1. The assay is classed as functional.
For another assay, the system named is Streptococcus. Nature of the assay: GAS UMAA2166 growth inhibition – luminescence, BacTiterGlo, counter-screen for streptokinase expression inhibitor project, dose response (AID 1915).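 Also: potency for reduction of bacterial viability or growth.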 The assay is classed as functional, organism-based.
Assay [14] can be described thus: THP-1 cell cytotoxicity, dose response, cytotoxicity control for non-replicating M. tuberculosis project (AID 489025). The assay is classed as functional.
Assay [15] is described as follows: Vero E6 cell cytotoxicity, dose response, cytotoxicity control for non-replicating M. tuberculosis project, secondary assay (AID 492998). The assay is classed as functional, VeroE6. To be noted: Vero C1008.
The target of the next assay is Cysteine protease ATG4B (Homo sapiens, UniProt Q9Y4P1). The assay is classed as functional.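 Also: Fluorescence-based dose-response confirmation assay measuring inhibition of ATG4B activity.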
The target in the next assay is Phospholipase A2 (Homo sapiens, UniProt P04054). The assay is classed as functional.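 Also: confirmatory dose-response counterscreen on phospholipase A2, testing hits that came from an ultra-high-throughput screen for ATG4B inhibitors.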
Sequence of Phospholipase A2 (P04054 whole entry): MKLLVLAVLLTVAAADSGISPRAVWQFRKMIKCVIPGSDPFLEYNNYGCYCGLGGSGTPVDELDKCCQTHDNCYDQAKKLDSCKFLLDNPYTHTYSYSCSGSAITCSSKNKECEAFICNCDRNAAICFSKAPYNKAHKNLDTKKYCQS

T1 sequence (P49327 whole entry): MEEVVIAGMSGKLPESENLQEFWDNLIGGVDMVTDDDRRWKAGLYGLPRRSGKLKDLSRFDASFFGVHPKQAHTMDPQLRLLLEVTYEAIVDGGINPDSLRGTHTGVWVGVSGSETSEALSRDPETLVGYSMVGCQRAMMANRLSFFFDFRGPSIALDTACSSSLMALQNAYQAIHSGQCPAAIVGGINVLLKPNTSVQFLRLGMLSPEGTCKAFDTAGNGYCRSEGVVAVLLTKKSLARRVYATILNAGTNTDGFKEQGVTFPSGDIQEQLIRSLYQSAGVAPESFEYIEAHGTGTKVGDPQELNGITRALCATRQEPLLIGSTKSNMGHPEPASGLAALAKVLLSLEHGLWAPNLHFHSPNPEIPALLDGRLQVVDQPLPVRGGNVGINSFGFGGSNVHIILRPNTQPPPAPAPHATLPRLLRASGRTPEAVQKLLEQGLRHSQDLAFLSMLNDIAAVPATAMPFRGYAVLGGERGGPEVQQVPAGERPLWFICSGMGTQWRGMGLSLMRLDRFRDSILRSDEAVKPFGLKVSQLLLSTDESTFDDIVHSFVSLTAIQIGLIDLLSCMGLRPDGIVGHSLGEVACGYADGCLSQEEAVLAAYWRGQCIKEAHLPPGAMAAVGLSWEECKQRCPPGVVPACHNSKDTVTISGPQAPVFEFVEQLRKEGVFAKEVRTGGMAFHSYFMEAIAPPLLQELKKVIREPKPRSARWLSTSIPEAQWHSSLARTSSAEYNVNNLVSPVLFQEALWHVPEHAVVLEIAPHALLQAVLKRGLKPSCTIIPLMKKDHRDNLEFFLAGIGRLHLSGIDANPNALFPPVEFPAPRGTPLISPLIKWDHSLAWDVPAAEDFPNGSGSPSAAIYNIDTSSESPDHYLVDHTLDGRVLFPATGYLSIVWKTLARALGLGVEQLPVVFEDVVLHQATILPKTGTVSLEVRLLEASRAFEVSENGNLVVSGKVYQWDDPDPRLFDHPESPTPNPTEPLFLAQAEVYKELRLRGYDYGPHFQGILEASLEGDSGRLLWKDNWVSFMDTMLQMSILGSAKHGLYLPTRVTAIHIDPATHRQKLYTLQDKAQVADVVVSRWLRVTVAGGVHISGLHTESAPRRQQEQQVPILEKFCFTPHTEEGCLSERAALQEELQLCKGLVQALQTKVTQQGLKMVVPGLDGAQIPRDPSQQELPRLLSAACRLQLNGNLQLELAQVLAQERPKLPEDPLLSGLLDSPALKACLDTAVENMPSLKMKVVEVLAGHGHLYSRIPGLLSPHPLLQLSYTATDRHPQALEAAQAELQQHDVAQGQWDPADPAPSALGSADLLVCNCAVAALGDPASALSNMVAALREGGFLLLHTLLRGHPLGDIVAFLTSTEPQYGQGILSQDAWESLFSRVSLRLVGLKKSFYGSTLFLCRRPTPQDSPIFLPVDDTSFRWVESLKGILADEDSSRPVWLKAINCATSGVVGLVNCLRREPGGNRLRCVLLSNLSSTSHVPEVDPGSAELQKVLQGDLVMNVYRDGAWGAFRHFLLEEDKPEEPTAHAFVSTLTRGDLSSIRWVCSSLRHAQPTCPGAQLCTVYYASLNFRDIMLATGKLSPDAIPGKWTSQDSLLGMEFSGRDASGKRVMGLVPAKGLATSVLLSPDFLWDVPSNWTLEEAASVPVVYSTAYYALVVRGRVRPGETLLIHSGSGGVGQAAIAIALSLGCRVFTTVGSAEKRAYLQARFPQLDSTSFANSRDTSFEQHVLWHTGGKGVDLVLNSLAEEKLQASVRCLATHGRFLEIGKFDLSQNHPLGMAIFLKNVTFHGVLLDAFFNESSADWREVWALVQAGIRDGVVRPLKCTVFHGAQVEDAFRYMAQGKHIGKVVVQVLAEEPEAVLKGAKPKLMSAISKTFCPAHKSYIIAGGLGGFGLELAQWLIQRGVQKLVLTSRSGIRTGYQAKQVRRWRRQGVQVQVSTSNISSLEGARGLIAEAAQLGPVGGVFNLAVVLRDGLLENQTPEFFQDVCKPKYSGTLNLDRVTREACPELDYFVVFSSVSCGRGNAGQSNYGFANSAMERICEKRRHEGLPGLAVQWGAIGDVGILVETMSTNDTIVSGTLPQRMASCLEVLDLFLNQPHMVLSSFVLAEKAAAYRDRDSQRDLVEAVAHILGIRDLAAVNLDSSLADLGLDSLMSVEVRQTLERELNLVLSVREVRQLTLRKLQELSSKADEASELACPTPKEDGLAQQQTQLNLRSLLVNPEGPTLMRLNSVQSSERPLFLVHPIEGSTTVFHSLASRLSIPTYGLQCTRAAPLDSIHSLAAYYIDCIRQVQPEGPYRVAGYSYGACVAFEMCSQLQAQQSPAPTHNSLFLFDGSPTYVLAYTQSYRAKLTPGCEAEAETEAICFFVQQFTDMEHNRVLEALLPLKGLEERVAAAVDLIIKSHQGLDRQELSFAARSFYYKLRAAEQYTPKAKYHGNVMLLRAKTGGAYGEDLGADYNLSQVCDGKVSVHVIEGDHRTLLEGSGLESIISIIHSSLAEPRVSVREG
T4 sequence (Q07820 whole entry): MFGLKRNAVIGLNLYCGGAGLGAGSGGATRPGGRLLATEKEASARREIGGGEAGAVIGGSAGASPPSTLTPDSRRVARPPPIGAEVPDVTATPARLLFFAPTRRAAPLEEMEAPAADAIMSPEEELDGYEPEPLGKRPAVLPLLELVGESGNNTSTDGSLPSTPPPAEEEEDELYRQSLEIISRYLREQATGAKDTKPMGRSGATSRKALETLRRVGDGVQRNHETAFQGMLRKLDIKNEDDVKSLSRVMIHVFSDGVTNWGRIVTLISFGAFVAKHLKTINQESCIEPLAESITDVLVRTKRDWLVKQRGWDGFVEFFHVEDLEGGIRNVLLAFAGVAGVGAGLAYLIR
Sequence of Bcl-2-like protein 1 (Q07817 whole entry): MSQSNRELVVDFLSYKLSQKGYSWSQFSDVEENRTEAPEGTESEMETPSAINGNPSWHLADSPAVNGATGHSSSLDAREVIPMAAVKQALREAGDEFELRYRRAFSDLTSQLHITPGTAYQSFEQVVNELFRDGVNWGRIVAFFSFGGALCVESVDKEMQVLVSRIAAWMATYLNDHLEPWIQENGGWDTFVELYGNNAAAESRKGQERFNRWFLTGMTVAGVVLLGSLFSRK
Sequence of Cysteine protease ATG4B (Q9Y4P1 whole entry): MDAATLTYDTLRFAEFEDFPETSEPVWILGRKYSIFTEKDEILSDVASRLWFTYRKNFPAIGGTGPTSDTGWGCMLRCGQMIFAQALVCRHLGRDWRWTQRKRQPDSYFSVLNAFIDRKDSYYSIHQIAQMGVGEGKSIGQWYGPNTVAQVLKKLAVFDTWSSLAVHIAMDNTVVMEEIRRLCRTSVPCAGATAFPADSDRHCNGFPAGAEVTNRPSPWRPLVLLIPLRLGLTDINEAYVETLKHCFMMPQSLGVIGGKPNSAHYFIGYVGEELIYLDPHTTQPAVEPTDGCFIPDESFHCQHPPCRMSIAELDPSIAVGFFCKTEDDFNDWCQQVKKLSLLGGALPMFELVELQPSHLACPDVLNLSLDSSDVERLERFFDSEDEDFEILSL
Sequence of Estrogen receptor beta (Q92731 whole entry): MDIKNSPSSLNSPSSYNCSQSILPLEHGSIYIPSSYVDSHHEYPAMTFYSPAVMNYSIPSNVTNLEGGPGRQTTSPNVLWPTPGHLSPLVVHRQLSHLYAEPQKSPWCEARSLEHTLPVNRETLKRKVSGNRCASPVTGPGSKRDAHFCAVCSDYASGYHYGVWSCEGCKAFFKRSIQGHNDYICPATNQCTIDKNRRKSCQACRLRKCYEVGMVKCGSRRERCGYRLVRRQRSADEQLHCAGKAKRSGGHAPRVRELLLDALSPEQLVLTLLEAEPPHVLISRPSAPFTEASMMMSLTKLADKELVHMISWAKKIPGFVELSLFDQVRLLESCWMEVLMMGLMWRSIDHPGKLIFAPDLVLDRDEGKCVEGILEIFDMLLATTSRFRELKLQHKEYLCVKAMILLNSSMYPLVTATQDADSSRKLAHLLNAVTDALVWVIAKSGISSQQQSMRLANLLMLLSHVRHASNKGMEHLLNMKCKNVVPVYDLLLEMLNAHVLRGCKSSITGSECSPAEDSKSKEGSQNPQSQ
Sequence of Beta-2 adrenergic receptor (P07550 whole entry): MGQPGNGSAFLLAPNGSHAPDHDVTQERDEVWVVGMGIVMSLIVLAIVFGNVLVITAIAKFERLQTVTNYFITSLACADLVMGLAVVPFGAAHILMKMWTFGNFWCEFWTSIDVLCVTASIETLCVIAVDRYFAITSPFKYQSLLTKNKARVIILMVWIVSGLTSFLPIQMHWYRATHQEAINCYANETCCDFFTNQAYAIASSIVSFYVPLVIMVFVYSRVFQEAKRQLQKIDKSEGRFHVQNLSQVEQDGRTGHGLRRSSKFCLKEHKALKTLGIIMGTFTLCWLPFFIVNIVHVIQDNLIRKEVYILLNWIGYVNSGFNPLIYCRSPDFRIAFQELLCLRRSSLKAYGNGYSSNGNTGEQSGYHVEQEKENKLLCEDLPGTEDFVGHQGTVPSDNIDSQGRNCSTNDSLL

`N#Cc1cc(-c2ccccc2)nc(Oc2ccc(Cl)cc2)n1`: the EC50 in [1] was 1.25 µM (active). Also, the results for the IC50 at Fatty acid synthase [2] and at Fatty acid synthase [3] were 7.97 µM (active) and 9.1 µM (active), respectively.

In the case of `CCc1ccc(-c2nc(CSCC(=O)NC3CC3)c(C)o2)cc1`, the IC50 (in assay [4]; in the assay on HEK293) was > 80 µM (inactive) in each case.

`COc1ccc(C(=O)N2CCN(c3ccnc4cc(Cl)ccc34)CC2)cc1`: the concentration at half-maximal activity (AC50) was 5.38 µM (active) with Candida albicans [5]; 4.25 µM (active) in the assay on Candida albicans [6]; 4.15 µM (active) with Candida albicans [7]; 32.2 µM (active) in the assay with Candida albicans [8]; 10.2 µM (active) in the assay on Candida albicans [9].

As to `C/C(=N/NC(=O)c1cc2ccccc2cc1O)C1C(=O)c2ccccc2C1=O`, the half-maximal cytotoxic concentration (CC50) is > 50 µM (active) in [10], 17.7 µM (active) in [14] and 16.7 µM (active) in assay [15]. In addition, the 50% inhibitory concentration (IC50) at Aminopeptidase N was 12 µM (active); in [12], > 109 µM (not active); against Estrogen receptor beta, 58.8 nM (not active); at Bcl-2-like protein 1, > 109 µM (not active); in [13], 2.11 µM (active); on Cysteine protease ATG4B, 5.43 µM (active). The IC50 on Phospholipase A2 was 4.87 µM (active). Also, the EC50 is 1.03 µM (active) in assay [11], > 150 µM (not active) at Streptokinase A and 10.1 µM (active) in the assay on Streptococcus.

(Values after ChEMBL document CHEMBL1201862, “PubChem BioAssay data set” (2004).)
